Results: US4278686A, “Carbapenum derivatives, a process for their preparation and their use in pharmaceutical compositions and intermediates” (Beecham Group Limited, priority 1978, dated 1981)
Like-named read-outs stand apart in the source and are kept apart here.

Legend:
Type in all cases: cell-based
[1] = system: Streptococcus pneumoniae CN33; assay: minimum inhibitory concentration, Streptococcus pneumoniae CN33 (DST agar+10% horse blood)
Protocol: (§1) The minimum inhibitory concentrations (MIC) of the compound (e54) was determined using a standard DST agar+10% horse blood substrate. The tests used an undiluted inoculum of bacteria. […]
(§2) The minimum inhibitory concentrations (MIC) of this compound was determined using a standard DST agar+10% horse blood substrate.
(§3) The minimum inhibitory concentrations (MIC) of this compound was determined using a standard DST agar+10% horse blood substrate. The tests used an undiluted inoculum of bacteria.

[2] = system: Pseudomonas aeruginosa A; assay: minimum inhibitory concentration, Pseudomonas aeruginosa A (DST agar+10% horse blood)
Protocol: as §1, §2, §3

[3] = system: Staphylococcus aureus Oxford; assay: minimum inhibitory concentration, Staphylococcus aureus Oxford (DST agar+10% horse blood)
Protocol: as §1, §2, §3

[4] = system: Staphylococcus aureus Russell; assay: minimum inhibitory concentration, Staphylococcus aureus Russell (DST agar+10% horse blood)
Protocol: as §1, §2, §3

[5] = system: Proteus mirabilis C977; assay: minimum inhibitory concentration, Proteus mirabilis C977 (DST agar+10% horse blood)
Protocol: as §1, §2, §3

[6] = system: Bacillus subtilis A; assay: minimum inhibitory concentration, Bacillus subtilis A (DST agar+10% horse blood)
Protocol: as §1, §2, §3

[7] = system: Klebsiella aerogenes A; assay: minimum inhibitory concentration, Klebsiella aerogenes A (DST agar+10% horse blood)
Protocol: as §1, §2, §3

[8] = system: Staphylococcus aureus 1517; assay: minimum inhibitory concentration, Staphylococcus aureus 1517 (DST agar+10% horse blood)
Protocol: as §1, §2, §3

[9] = system: Streptococcus pyogenes CN10; assay: minimum inhibitory concentration, Streptococcus pyogenes CN10 (DST agar+10% horse blood)
Protocol: as §1, §2, §3

[10] = system: Proteus morganii I580; assay: minimum inhibitory concentration, Proteus morganii I580 (DST agar+10% horse blood); conditions: Morganella morganii
Protocol: The minimum inhibitory concentrations (MIC) of the compound (e54) was determined using a standard DST agar+10% horse blood substrate. The tests used an undiluted inoculum of bacteria.
Sodium (5R,6S)-3-(2-acetamidoethylthio)--6-ethyl-7-oxo-1-azabicyclo[3.2.0]-hept-2-ene-2-carboxylate [drawing 60] p-Methoxycarbonylbenzyl (5R,6S)-3-(2-acetamidoethylthio)-6-ethyl-7-oxo-1-azabicyclo[3.2.0]hept-2-ene-2-carboxylate (e58) (18 mg) was added to the cathodic compartment of an H-type divided two-compartment electrochemical cell, with a mercury cathode and a platinum anode. The cell contained degassed 0.1 M n-Bu4 NI in dimethylformamide as electrolyte. The volume of the catholyte was about 15 ml [glacial acetic acid (about 10 mg) added] and the volume of the anolyte was about 8 ml. A potentiostat was employed to fix the potential of the cathode at -1.9 V with respect to the standard calomel electrode, and the initial current, about 56 mA, fell to about 15 mA after about 15 min. The catholyte was removed from the cell and the solvent was evaporated in vacuo. The residue was taken up in CH2 Cl2 (10 ml) and washed with water (10 ml). The aqueous phase was separated and washed with CH2 Cl2. The aqueous phase, containing the tetrabutylammonium salt corresponding to (e63) was passed through an Amberlite IR 120 (Na form) column (17×1 cm) and the eluate was reduced to low volume by evaporation in vacuo. The residue was passed through a Biogel P-2 column, to yield fractions containing sodium (5R,6S)-3-(2-acetamidoethylthio)-6-ethyl-7-oxo-1-azabicyclo[3.2.0]hept-2-ene-2-carboxylate (e63) having λmax 298 nm. The minimum inhibitory concentrations (MIC) of this compound was determined using a standard DST agar+10% horse blood substrate.
Sodium (5R,6S)-3-[(E)-2-acetamidoethenylthio]-6-ethyl-7-oxo-1-azabicyclo[3.2.0]hept-2-ene-2-carboxylate [drawing 68] p-Methoxycarbonylbenzyl (5R,6S)-3-[(E)-2-acetamidoethenylthio]-6-ethyl-7-oxo-1-azabicyclo[3.2.0]hept-2-ene-2-carboxylate (e72) (64 mg) in solution in 0.1 M (n-C4 H9)4 NBF4 in dry DMF was added to the cathodic compartment of a divided cylindrical electrochemical cell, with a mercury cathode and platinum anode. The volume of electrolyte in the cathodic compartment was about 25 ml, and in the anodic compartment about 10 ml. Acetic acid (12 mg) was added to the cathodic compartment and ethanol (250 mg) was added to the anodic compartment. The cell was degassed by passing argon for 30 min. The potentiostat was engaged to maintain the potential of the cathode at -1.9 V w.r.t. standard calomel electrode. The initial current (40 mA) fell to about 5 mA after 25 min. The solvent was removed from the catholyte by evaporation in vacuo and the residual oil was taken up in CH2 Cl2 (20 ml) and extracted with water (15 ml) containing sodium tetrafluoroborate (100 mg). The aqueous extract was washed with CH2 Cl2 and then passed down an Amberlite 1R 120 column (1×20 cm) in the sodium form. The volume of the eluate was reduced to about 5 ml by evaporation in vacuo and loaded onto a Biogel P-2 column (18×3 cm). Elution with water yielded fractions containing sodium (5R,6S)-3-[(E)-2-acetamidoethenylthio]-6-ethyl-7-oxo-1-azabicyclo[3.2.0]hept-2-ene-2-carboxylate (e73) λmax 308 nm. The minimum inhibitory concentrations (MIC) of this compound was determined using a standard DST agar+10% horse blood substrate.
Sodium (5R,6R)-3-[(E)-2-acetamidoethenylthio]-6-(1-benzylthioethyl)-7-oxo-1-azabicyclo[3.2.0]hept-2-ene-2-carboxylate [drawing 87] The least polar crystalline isomer of the ester (e93) (40 mg) obtained in Example 70 was added to a mixture of 5% Pd on C (60 mg) in 20% aqueous dioxan (5 ml) which had been prehydrogenated for 0.5 h. Hydrogenation was continued for 4 h and the mixture was filtered through Celite after adding NaHCO3 (7 mg) and water (10 ml). The solution was concentrated to a volume of about 10 ml and was then washed with ethyl acetate (3×30 ml). […]

[11] = system: Escherichia coli 0111; assay: minimum inhibitory concentration, Escherichia coli 0111 (DST agar+10% horse blood)
Protocol: as §1, §2, §3

[12] = system: Escherichia coli JT 39; assay: minimum inhibitory concentration, Escherichia coli JT 39 (DST agar+10% horse blood); conditions: JT39
Protocol: as §1, §2, §3

[13] = system: Serratia marcescens US20; assay: minimum inhibitory concentration, Serratia marcescens US20 (DST agar+10% horse blood)
Protocol: as §1, §2, §3

[14] = system: Citrobacter freundii E8; assay: minimum inhibitory concentration, Citrobacter freundii E8 (DST agar+10% horse blood)
Protocol: as §1, §2, §3

[15] = system: Salmonella typhimurium CT10; assay: minimum inhibitory concentration, Salmonella typhimurium CT10 (DST agar+10% horse blood); conditions: Salmonella enterica
Protocol: as §1, §2, §3

[16] = system: Proteus rettgeri WM16; assay: minimum inhibitory concentration, Proteus rettgeri WM16 (DST agar+10% horse blood); conditions: Providencia rettgeri
Protocol: as §1, §2, §3

[17] = system: Streptococcus faecalis I; assay: minimum inhibitory concentration, Streptococcus faecalis I (DST agar+10% horse blood); conditions: Enterococcus faecalis
Protocol: as §1, §2, §3

[18] = system: Enterobacter cloacae N1; assay: minimum inhibitory concentration, Enterobacter cloacae N1 (DST agar+10% horse blood); conditions: Enterobacter cloacae, Enterobactor cloacae N1
Protocol: as §1, §2, §3

[19] = system: Shigella sonnei MB 11967; assay: minimum inhibitory concentration, Shigella sonnei MB 11967 (DST agar+10% horse blood); conditions: MB11967
Protocol: as §1, §2, §3

[20] = system: E. coli ESS; assay: minimum inhibitory concentration, E. coli ESS (DST agar+10% horse blood); conditions: Escherichia coli
Protocol: as §1, §2, §3

[21] = system: Proteus vulgaris WO91; assay: minimum inhibitory concentration, Proteus vulgaris WO91 (DST agar+10% horse blood)
Protocol: as §1, §2, §3

[22] = Proteus morganii I580, DST agar+10% horse blood, read-out: MIC

Compound | MIC [1] | MIC [2] | MIC [3] | MIC [4] | MIC [5] | MIC [6] | MIC [7] | MIC [8] | MIC [9] | MIC [11] | MIC [12] | MIC [13] | MIC [14] | MIC [15] | MIC [16] | MIC [17] | MIC [18] | MIC [19] | MIC [20] | MIC [21] | other results
CC(=O)N/C=C/SC1=C(C(=O)[O-])N2C(=O)[C@H](C(C)SCc3ccccc3)[C@H]2C1.[Na+] (stereo partly drawn) [e94, Sodium (5R,6R)-3-[(E)-2-acetamidoethenylthio]-6-(1-benzylthioethyl)-7-oxo-1-azabicyclo[3.2.0]hept-2-ene-2-carboxylate] | 0.2 µg/mL | 50 µg/mL | 0.4 µg/mL | 0.8 µg/mL | 12.5 µg/mL | 1.6 µg/mL | 3.1 µg/mL | 50 µg/mL | 0.4 µg/mL | 3.1 µg/mL | 3.1 µg/mL | 6.2 µg/mL | 6.2 µg/mL | 1.6 µg/mL | 6.2 µg/mL | 25 µg/mL | 3.1 µg/mL | 1.6 µg/mL | 0.4 µg/mL | 6.2 µg/mL | MIC [10, 22]: 6.2 µg/mL
CC[C@@H]1C(=O)N2C(C(=O)[O-])=C(SCCNC(C)=O)C[C@H]12.[Na+] [e63, sodium (5R,6S)-3-(2-acetamidoethylthio)-6-ethyl-7-oxo-1-azabicyclo[3.2.0]hept-2-ene-2-carboxylate] |  | > 40 µg/mL | 0.6 µg/mL | 0.6 µg/mL | 10 µg/mL |  | 1.2 µg/mL | 10 µg/mL | 0.1 µg/mL | 2.5 µg/mL | 10 µg/mL | 10 µg/mL | 2.5 µg/mL | 2.5 µg/mL | 10 µg/mL | 40 µg/mL | 20 µg/mL | 2.5 µg/mL | 1.2 µg/mL | 5 µg/mL | MIC [10, 22]: 40 µg/mL
CC(=O)N/C=C/SC1=C(C(=O)[O-])N2C(=O)[C@H](C(C)SCCNC(C)=O)[C@H]2C1.[Na+] (stereo partly drawn) [e98, Sodium (5R,6R)-3-[(E)-2-acetamidoethenylthio]-6-[1-(2-acetamidoethylthio)ethyl]-7-oxo-1-azabicyclo[3.2.0]hept-2-ene-2-carboxylate] | 0.2 µg/mL | > 50 µg/mL | 1.2 µg/mL | 2.5 µg/mL | 12.5 µg/mL | 2.5 µg/mL | 5 µg/mL | 12.5 µg/mL | 0.5 µg/mL | 5 µg/mL | 5 µg/mL | 12.5 µg/mL | 5 µg/mL | 2.5 µg/mL | 12.5 µg/mL | 50 µg/mL | 5 µg/mL | 5 µg/mL | 1.2 µg/mL | 12.5 µg/mL | MIC ([10]; I580): 25 µg/mL
